Numbered stars: 1 amine (or outer) side, 2 acyl side, 3 side chain; on linkers, the order of the positions; unused ones are H or OH. Square brackets hold non-standard residues; d marks the D form. Peptide text beside a SMILES is read from it. * marks the point of attachment. Doxorubicin(3'-N) = COc1cccc2c1C(=O)c1c(O)c3c(c(O)c1C2=O)C[C@@](O)(C(=O)CO)C[C@@H]3O[C@H]1C[C@H](N*)[C@H](O)[C@H](C)O1; X1 = O=P1(N(CCCl)CCCl)N[C@@H](N*)CCO1; Glutaryl = O=C(CCCC(=O)[*:2])[*:1]; Hyp = O=C(O)[C@@H]1C[C@@H](O)CN1; Chg = N[C@H](C(=O)O)C1CCCCC1; Suc = O=C(CCC(=O)[*:2])[*:1]
How the values were obtained:
[1] = biological target: T1, Prostate-specific antigen (Homo sapiens, UniProt P07288); assay: Prodrug activation assessed as PSA (unknown origin)-mediated digestion assessed as half life at 1/100 enzyme-compound molar ratio by HPLC analysis
T1 sequence (P07288 whole entry): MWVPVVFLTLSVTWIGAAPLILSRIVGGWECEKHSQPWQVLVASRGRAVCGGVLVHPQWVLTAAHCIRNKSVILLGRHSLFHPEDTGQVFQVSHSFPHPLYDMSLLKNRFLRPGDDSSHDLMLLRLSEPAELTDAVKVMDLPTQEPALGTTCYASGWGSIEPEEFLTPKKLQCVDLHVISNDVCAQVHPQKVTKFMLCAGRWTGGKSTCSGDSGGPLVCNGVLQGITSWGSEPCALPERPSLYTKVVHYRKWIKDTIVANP

[2] = biological target: T2, Prostate-specific antigen (PSA) (Homo sapiens, UniProt P07288); assay: Drug metabolism assessed as PSA (unknown origin)-mediated digestion assessed as compound remaining after 50 hrs by HPLC analysis; assay type: ADME; conditions: PSA (prostate-specific antigen) enzyme, read-out: Drug metabolism
T2 sequence (P07288 whole entry): T1 sequence (P07288 whole entry)

[3] = biological target: T1, Prostate-specific antigen; assay: Prodrug activation assessed as PSA (unknown origin)-mediated digestion assessed as glutaryl-Hyp-Ala-Ser-Chg-Gln-OH level by LC-MS analysis
[4] = biological target: T2, Prostate-specific antigen (PSA); assay: Drug metabolism assessed as PSA (unknown origin)-mediated digestion assessed as compound remaining after 4 hrs by HPLC analysis; assay type: ADME; conditions: PSA (prostate-specific antigen) enzyme, read-out: Drug metabolism

| SMILES | t1/2 [1] [h] | remaining at 50 h [2] [%] | Drug metabolism [3] | remaining at 4 h [4] [%] |
| --- | --- | --- | --- | --- |
| COc1cccc2c1C(=O)c1c(O)c3c(c(O)c1C2=O)C[C@@](O)(C(=O)CO)C[C@@H]3O[C@H]1C[C@H](NC(=O)[C@H](CC(C)C)NC(=O)[C@H](CO)NC(=O)[C@H](CCC(N)=O)NC(=O)[C@@H](NC(=O)[C@H](CO)NC(=O)[C@H](C)NC(=O)[C@@H]2C[C@@H](O)CN2C(=O)CCCC(=O)O)C2CCCCC2)[C@H](O)[C@H](C)O1 [L-377202] (Glutaryl-[Hyp]AS[Chg]QSL-{Doxorubicin(3'-N)}) | 0.5 | – | – | – |
| CC(C)C[C@H](NC(=O)[C@H](CCCCN)NC(=O)[C@H](CO)NC(=O)CCC(=O)O)C(=O)N[C@@H](CCC(N)=O)C(=O)N[C@H]1CCOP(=O)(N(CCCl)CCCl)N1 (some centres not stated) (Suc-SKLQ-X1) | 12 | < 10 | – | – |
| C[C@H](NC(=O)[C@@H]1C[C@@H](O)CN1C(=O)CCCC(=O)O)C(=O)N[C@@H](CO)C(=O)N[C@H](C(=O)N[C@@H](CCC(N)=O)C(=O)N[C@H]1CCOP(=O)(N(CCCl)CCCl)N1)C1CCCCC1 (some centres not stated) (Glutaryl-[Hyp]AS[Chg]Q-X1) | 0.917 | – | Active | < 10 |
| CC(C)C[C@H](NC(=O)[C@H](CCCCN)NC(=O)[C@H](CO)NC(=O)[C@H](CO)NC(=O)[C@H](Cc1cnc[nH]1)NC(=O)CCC(=O)O)C(=O)N[C@@H](CCC(N)=O)C(=O)N[C@H]1CCOP(=O)(N(CCCl)CCCl)N1 (some centres not stated) (Suc-HSSKLQ-X1) | 6.5 | – | – | – |
